# Data from patent US4654349A, “Anti-allergic methods using pyrazolo(1,5-A)pyridines” (Kyorin Pharmaceutical Co., Ltd., priority 1983, dated 1987).
# Key:
# [1] = test system: Cyclooxygenase; test: Effect on metabolism of exogenous arachidonic acid in A23187-stimulated guinea pig peritoneal neutrophils: cyclooxygenase product; assay type: cell-based
# Protocol: (§1) The effect of the compounds of this invention on the metabolism of exogenous arachidonic acid-1-^14 C was determined essentially according to the method of Harvey and Osborne [J. Pharmacol. Methods 9, 147 (1983)] using guinea pig peritoneal neutrophils stimulated with calcium ionophore A23187. With this procedure, 5-hydroxyeicosatetraenoic acid (a 5-lipoxygenase product) and 12-hydroxy-5,8,10-heptadecatrienoic acid (a cyclooxygenase product) were produced by neutrophils as major metabolites, allowing simultaneous evaluation of the drug effect on both pathways of arachidonic acid metabolism.
# [2] = test system: SRS-A release; test: Inhibitory effect on SRS-A release (chopped lung fragments of sensitized guinea pigs upon antigen challenge, bioassayed on isolated guinea pig ileum); assay type: cell-based; details: Cavia porcellus; concentration of test compound required to produce a 50% inhibition of SRS-A release; preincubated with lung fragments prior to antigen challenge
# Protocol: The inhibitory effect of the compounds of this invention on SRS-A release was determined according to the method of Orange and Moors [J. Immunol., 116, 392 (1976)]. SRS-A released from chopped lung fragments of sensitized guinea pigs upon antigen challenge was bioassayed on isolate guinea pig ileum according to the method of Brocklehurst [J. Physiol., 151, 416 (1960)]. Test compounds were preincubated with lung fragments prior to antigen challenge.
# [3] = molecular target: T1, 5-Lipoxygenase (Cavia porcellus, UniProt A0A286X958); test: Effect on metabolism of exogenous arachidonic acid in A23187-stimulated guinea pig peritoneal neutrophils: 5-lipoxygenase product; assay type: cell-based; details: read-out: Inhibition percent, 5-Lipoxygenase
# T1 construct: using guinea pig peritoneal neutrophils stimulated with calcium ionophore A23187; endogenous in cells; host or cells: guinea pig peritoneal neutrophils
# T1 sequence (A0A286X958 1-674): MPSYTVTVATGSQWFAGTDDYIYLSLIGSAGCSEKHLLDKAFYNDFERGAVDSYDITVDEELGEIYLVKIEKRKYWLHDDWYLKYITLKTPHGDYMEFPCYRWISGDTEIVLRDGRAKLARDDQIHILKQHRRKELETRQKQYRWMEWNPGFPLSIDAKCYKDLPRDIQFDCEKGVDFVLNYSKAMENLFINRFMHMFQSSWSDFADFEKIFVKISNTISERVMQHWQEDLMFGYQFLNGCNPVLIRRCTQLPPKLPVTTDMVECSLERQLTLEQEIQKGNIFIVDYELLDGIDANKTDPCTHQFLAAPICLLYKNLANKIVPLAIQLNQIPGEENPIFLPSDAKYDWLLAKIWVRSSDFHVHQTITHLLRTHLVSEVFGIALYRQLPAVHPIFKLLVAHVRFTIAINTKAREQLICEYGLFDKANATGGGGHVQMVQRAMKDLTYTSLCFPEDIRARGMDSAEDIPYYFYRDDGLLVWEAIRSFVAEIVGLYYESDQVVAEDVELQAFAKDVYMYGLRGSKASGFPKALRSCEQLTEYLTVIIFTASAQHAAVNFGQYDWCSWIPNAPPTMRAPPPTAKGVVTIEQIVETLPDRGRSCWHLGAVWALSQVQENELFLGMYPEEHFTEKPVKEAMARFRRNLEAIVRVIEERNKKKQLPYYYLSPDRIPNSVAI
# Protocol: as §1
# [4] = must be insufflated as a powder; cited from earlier work
SMILES,"Inhibition percent, Cyclooxygenase ([1]; 0.1 μM)",IC50 [2],inhibition at 0.1 µM [3],other results
CCCc1nn2ccccc2c1OC(C)=O [compound 10],0%,1.7 µg/mL,20.6%,"Inhibition percent, Cyclooxygenase ([1]; 0.3 μM): 0%; inhibition at 0.3 µM [3]: 80.2%"
CC(C)c1nn2ccccc2c1O [compound 2],,1.4 µg/mL,,
CC(=O)Oc1c(C(C)C)nn2ccccc12 [compound 11],,0.7 µg/mL,,
CCc1nn2ccccc2c1OC(C)=O [compound 9],0%,1 µg/mL,35.1%,"Inhibition percent, Cyclooxygenase ([1]; 0.3 μM): 0%; inhibition at 0.3 µM [3]: 61.7%"
"O=C1CCN(c2ccccc2)N1 [phenidone, 1phenyl-3-pyrazolidone, reference compound]",,6.3 µg/mL,,"Inhibition percent, Cyclooxygenase ([1]; 0.3 μM): 0%; Inhibition percent, Cyclooxygenase ([1]; 1.0 μM): 0%; Inhibition percent, Cyclooxygenase ([1]; 3.0 μM): 0%; Inhibition percent, Cyclooxygenase ([1]; 30.0 μM): 58.2%; inhibition at 0.3 µM [3]: 22%; inhibition at 1 µM [3]: 60%; inhibition at 3 µM ([3]; 3.0 μM): 89%; inhibition at 30 µM ([3]; 30.0 μM): 95.5%"
Cc1cccc2c(OC(=O)C(C)C)c(C(C)C)nn12 [compound 14],,0.53 µg/mL,,
CC(C)CC(=O)Oc1c(CC(C)C)nn2ccccc12 [compound 16],0%,1.9 µg/mL,16.9%,"Inhibition percent, Cyclooxygenase ([1]; 0.3 μM): 0%; inhibition at 0.3 µM [3]: 82.1%"
"CCc1ccc2c(O)cnn2c1 [compound 1, 6-Ethyl-3-hydroxypyrazolo[1,5-a]pyridine]",,0.55 µg/mL,,
CC(=O)Oc1c(-c2ccc(F)cc2)nn2ccccc12 [compound 20],,2.4 µg/mL,,"Inhibition percent, Cyclooxygenase ([1]; 1.0 μM): 0%; inhibition at 1 µM [3]: 83.7%"
O=C(O)c1cc(=O)c2c(OCC(O)COc3cccc4oc(C(=O)O)cc(=O)c34)cccc2o1 [disodium cromoglycate],,,,oral activity (in words) [4]: orally inactive
CC(C)Cc1nn2ccccc2c1O [compound 5],0%,1.8 µg/mL,20.3%,"Inhibition percent, Cyclooxygenase ([1]; 1.0 μM): 0%; inhibition at 1 µM [3]: 86.6%"
"Oc1c(-c2ccc(F)cc2)nn2ccccc12 [compound 6, 2-p-Fluorophenyl-3-hydroxypyrazolo[1,5-a]pyridine]",,2.4 µg/mL,,
"CCC(=O)Oc1cnn2cc(CC)ccc12 [compound 7, 6-Ethyl-3-propionyloxypyrazolo[1,5-a]pridine]",0%,1 µg/mL,62%,"Inhibition percent, Cyclooxygenase ([1]; 0.3 μM): 0%; inhibition at 0.3 µM [3]: 84%"
"CCOC(=O)Oc1c(C(C)C)nn2cc(CC)ccc12 [compound 17, 3-Ethoxycarbonyloxy-6-ethyl-2-isopropylpyrazolo[1,5-a]pyridine]",,1.5 µg/mL,,
CCC(=O)Oc1c(C(C)C)nn2ccccc12 [compound 12],0%,0.52 µg/mL,53.2%,
Cc1cccc2c(O)c(C(C)C)nn12 [compound 3],,0.63 µg/mL,,
"CCc1ccc2c(OC(=O)C(C)C)c(C(C)C)nn2c1 [compound 15, 6-Ethyl-3-isobutyryloxy-2-isopropylpyrazolo[1,5-a]pyridine]",,1.2 µg/mL,,
Cc1nn2ccccc2c1OC(=O)C(C)C [compound 8],,1.7 µg/mL,,
"CCc1ccc2c(O)c(C(C)C)nn2c1 [compound 4, 6-Ethyl-3-hydroxy-2-isopropylpyraxolo[1,5-a]pyridine]",,3.5 µg/mL,,
CC(C)C(=O)Oc1c(C(C)C)nn2ccccc12 [compound 13],,0.88 µg/mL,,
